The LD50 is the dose at which mortality reaches 50%. A high value points to a less toxic substance.

Results on one compound are retold here after patent US4877870A, “Process for producing 10-hydroxyanthracyclines” (Kirin Beer Kabushiki Kaisha, priority 1986, dated 1989).

For this series the following is noted: ICR mice, intravenous injection.

As to `CC[C@@]1(O)C[C@H](O[C@H]2C[C@H](N3CCOCC3)[C@H](O)[C@H](C)O2)c2c(O)c3c(c(O)c2[C@H]1O)C(=O)c1cccc(O)c1C3=O` [M-R20X2, 3'-deamino-3'-(4-morpholinyl)-13-deoxo-10-hydroxycarminomycin], the LD50 turned out to be 3.55 mg/kg.
